Results as given in patent publication US7396525B2, “Care/makeup compositions comprising a 2-alkylideneaminooxyacetamide compound for stimulating the growth of the hair or eyelashes and/or slowing loss thereof” (L'Oreal, priority 2003, dated 2008).

Molecular target: T1, PGF synthase (PGFS) (Homo sapiens, UniProt P42330)
T1 construct: made in house
T1 sequence (P42330 1-323): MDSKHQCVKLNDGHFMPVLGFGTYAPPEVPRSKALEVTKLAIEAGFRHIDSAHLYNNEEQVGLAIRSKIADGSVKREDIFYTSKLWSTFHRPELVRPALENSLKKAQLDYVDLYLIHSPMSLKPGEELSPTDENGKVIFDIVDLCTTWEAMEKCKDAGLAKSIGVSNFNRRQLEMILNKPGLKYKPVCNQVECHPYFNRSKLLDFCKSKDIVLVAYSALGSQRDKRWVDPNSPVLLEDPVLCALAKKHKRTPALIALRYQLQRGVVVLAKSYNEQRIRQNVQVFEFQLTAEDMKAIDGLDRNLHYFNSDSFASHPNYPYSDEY
Assay: Test on PGF synthase (spectrophotometric, 340 nm, 9,10-phenanthrenequinone/β-NADPH)
Assay type: biochemical
Description: The enzyme PGFS is obtained as disclosed in FR-A-02/05067, at a concentration of 0.5 mg/ml, in suspension in an appropriate medium, and is blocked at −80° C. For the requirements of the test, this suspension is defrosted and stored in ice.
Furthermore, a Tris 100 mM, pH=6.5, buffer comprising 20 μM of 9,10-phenanthrenequinone*(P2896, Sigma-Aldrich, L'isle D'Abeau Chesne, BP 701, 38297, Saint Quentin Fallavier) and 100 μM of β-NADPH (N1630, Sigma-Aldrich, L'isle D'Abeau Chesne, BP 701, 38297, Saint Quentin Fallavier) is prepared in a brown bottle (exclusion of light). *A mother solution assaying 1 mM is prepared in absolute ethanol and is brought to 40° C.; the bottle is placed in an ultrasonic bath to facilitate the dissolution of the product.
0.950 ml of this buffer (brought beforehand to 37° C.) is introduced into the cell of a spectrophotometer (Perkin-Elmer, Lambda 2) thermostatically controlled at 37° C., the wavelength of which for the measurement is adjusted to 340 nm. 0.05 ml of enzymatic suspension at 37° C. is introduced into the cell concomitantly with the recording (corresponding to a fall in optical density at 340 nm). The maximum rate of reaction is noted.

IC50: 50 to 100 µM
Compound: C/C(=N/OCC(=O)Nc1ccccc1)c1cccs1 [Compound 1, N-Phenyl-2({[(1Z)-1-(thien-2-yl)-ethylidene]amino}oxy)acetamide]
